Laboratory results reported in patent US20240270809A1, “ORAL GLP RECEPTOR AGONISTS” (priority 2020, published 2024).
Positions of bridges follow the written chain, without caps; N, C: chain ends. Non-standard residues stand in square brackets, D forms with d. Residues, ends and D or L forms follow the SMILES beside them. Nle = CCCC[C@H](N)C(=O)O; Aib = CC(C)(N)C(=O)O

Columns and labels:
[1] = biological target: T1, human GLP2 receptor (Homo sapiens, UniProt O95838); test: cAMP accumulation assay, functional agonism of human GLP2 receptor; type: cell-based; settings: HEK cells infected with human GLP2 receptor BacMam virus, HTRF cAMP; for Emax: HEK293, read-out: Human GLP-2R agonist cAMP Emax; for EC50: read-out: Human GLP-2R agonist cAMP pEC50 (converted)
T1 construct: expressed in transfected cells; host or cells: HEK cells, BacMam virus transduction
T1 sequence (O95838 1-553): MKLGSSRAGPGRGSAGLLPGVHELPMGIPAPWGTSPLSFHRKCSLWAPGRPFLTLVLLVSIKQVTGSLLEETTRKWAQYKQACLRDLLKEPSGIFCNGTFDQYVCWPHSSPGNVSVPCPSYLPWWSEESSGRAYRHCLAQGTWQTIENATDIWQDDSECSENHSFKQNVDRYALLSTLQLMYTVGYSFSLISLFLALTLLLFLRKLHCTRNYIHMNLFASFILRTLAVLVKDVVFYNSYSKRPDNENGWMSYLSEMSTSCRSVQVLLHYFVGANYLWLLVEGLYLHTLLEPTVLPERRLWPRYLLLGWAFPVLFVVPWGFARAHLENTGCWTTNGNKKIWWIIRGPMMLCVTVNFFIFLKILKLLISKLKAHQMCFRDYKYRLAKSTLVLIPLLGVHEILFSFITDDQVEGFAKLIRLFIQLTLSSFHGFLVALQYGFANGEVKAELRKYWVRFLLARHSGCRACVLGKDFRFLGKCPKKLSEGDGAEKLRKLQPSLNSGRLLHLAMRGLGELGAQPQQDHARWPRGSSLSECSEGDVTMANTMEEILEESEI
Procedure, shortened: (§1)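 Steps: infect HEK cells with human GLP1 or GLP2 receptor BacMam for 24 hours; freeze; resuspend in HBSS with 0.5 mM IBMX; incubate with agonist 45 min at 37° C; lyse with HTRF detection reagents and read cAMP.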

[2] = biological target: T2, human GLP1 receptor (Homo sapiens, UniProt P43220); test: cAMP accumulation assay, functional agonism of human GLP1 receptor; type: cell-based; settings: HEK cells infected with human GLP1 receptor BacMam virus, HTRF cAMP; for Emax: HEK293, read-out: Human GLP-1R agonist cAMP Emax; for EC50: read-out: Human GLP-1R agonist cAMP pEC50 (converted)
T2 construct: expressed in transfected cells; host or cells: HEK cells, BacMam virus transduction
Procedure, shortened: as §1

[3] = biological target: T3, mouse GLP2 receptor (Mus musculus, UniProt Q5IXF8); test: cAMP accumulation assay, functional agonism of mouse GLP2 receptor; type: cell-based; settings: HEK cells transiently transfected with mouse GLP2 receptor, HTRF cAMP; for Emax: HEK293, read-out: Mouse GLP-2R agonist cAMP Emax; for EC50: read-out: Mouse GLP-2R agonist cAMP pEC50 (converted)
T3 construct: expressed in transfected cells; host or cells: HEK cells, transient transfection with GeneJuice
T3 sequence (Q5IXF8 1-512): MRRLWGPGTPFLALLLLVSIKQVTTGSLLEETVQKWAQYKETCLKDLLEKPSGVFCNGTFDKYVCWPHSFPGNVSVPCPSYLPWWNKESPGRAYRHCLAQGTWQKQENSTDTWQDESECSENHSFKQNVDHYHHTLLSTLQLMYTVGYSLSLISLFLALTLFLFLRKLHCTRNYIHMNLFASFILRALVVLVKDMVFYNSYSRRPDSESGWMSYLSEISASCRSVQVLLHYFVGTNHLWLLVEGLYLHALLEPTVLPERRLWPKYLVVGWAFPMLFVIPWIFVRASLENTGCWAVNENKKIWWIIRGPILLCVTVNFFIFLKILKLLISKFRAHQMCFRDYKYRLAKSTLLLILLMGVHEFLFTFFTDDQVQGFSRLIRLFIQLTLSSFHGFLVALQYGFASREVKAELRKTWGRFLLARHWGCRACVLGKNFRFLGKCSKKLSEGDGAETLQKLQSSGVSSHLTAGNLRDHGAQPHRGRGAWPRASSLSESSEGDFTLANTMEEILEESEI
Procedure, shortened: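 Transiently transfected HEK cells (24 h, frozen, 8000/well) in HBSS with 0.5 mM IBMX exposed to compound concentration series for 45 min at 37 °C. cAMP measured by HTRF after lysis and 1 h at RT; pEC50 from four-parameter concentration-response fit.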

[4] = biological target: T4, mouse GLP1 receptor (Mus musculus, UniProt O35659); test: cAMP accumulation assay, functional agonism of mouse GLP1 receptor; type: cell-based; settings: HEK cells transiently transfected with mouse GLP1 receptor, HTRF cAMP; for Emax: HEK293, read-out: Mouse GLP-1R agonist cAMP Emax; for EC50: read-out: Mouse GLP-1R agonist cAMP pEC50 (converted)
T4 construct: expressed in transfected cells; host or cells: HEK cells, transient transfection with GeneJuice
T4 sequence (O35659 22-463): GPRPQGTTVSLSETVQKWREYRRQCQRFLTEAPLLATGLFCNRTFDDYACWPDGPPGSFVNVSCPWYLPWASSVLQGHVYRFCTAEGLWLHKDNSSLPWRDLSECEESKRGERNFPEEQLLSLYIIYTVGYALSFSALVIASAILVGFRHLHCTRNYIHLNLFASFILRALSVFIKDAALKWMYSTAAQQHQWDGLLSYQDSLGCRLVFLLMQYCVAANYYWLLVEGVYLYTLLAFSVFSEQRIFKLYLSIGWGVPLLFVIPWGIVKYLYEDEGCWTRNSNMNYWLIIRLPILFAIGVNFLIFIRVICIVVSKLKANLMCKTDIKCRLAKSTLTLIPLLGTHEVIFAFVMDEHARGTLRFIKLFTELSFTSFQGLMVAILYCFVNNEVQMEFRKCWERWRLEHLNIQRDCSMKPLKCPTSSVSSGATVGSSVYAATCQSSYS

[5] = Stability of peptides in Fasted-State Simulated Intestinal Fluid (FaSSIF); type: in vitro ADME; settings: FaSSIF with 10 mg/ml pancreatin; FaSSIF pH 6.5 with 10 mg/ml pancreatin, 37° C., t = 15 mins

T2 sequence (P43220 24-463): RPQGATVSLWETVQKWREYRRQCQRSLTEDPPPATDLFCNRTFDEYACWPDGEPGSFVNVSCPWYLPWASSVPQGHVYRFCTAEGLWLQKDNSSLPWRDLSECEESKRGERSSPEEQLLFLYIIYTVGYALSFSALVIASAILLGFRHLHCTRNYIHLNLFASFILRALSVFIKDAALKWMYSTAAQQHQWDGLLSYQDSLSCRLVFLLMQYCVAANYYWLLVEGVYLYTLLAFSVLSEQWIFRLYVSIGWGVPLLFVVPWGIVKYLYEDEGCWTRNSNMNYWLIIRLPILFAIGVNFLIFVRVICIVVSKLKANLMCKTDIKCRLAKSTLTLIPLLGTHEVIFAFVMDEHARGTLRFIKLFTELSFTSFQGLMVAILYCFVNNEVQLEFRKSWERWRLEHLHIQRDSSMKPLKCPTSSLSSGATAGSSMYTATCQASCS

Emax [1] [%]	EC50 [1] [nM]	Emax [2] [%]	EC50 [2] [nM]	Emax [3] [%]	EC50 [3] [nM]	Emax [4] [%]	EC50 [4] [nM]	remaining at 0.25 h [5] [%]	SMILES
102	0.00251	99.6	3.16	98.4	0.00631	94.5	0.794	10.5	CCCC[C@H](NC(=O)[C@H](CCC(=O)O)NC(=O)[C@H](CC(=O)O)NC(=O)[C@H](CO)NC(=O)[C@H](Cc1ccccc1)NC(=O)[C@H](CO)NC(=O)CNC(=O)[C@H](CC(=O)O)NC(=O)C(C)(C)NC(=O)[C@@H](N)Cc1c[nH]cn1)C(=O)N[C@H](Cc1ccccc1)C(=O)N[C@H](C(=O)N[C@H](C(=O)N[C@@H](CC(C)C)C(=O)N[C@@H](CC(=O)O)C(=O)N[C@H]1CCC(=O)NCCCC[C@@H](C(=O)N[C@@H](CC(=O)O)C(=O)N[C@@H](Cc2ccccc2)C(=O)N[C@H](C(=O)N[C@@H](CC(N)=O)C(=O)N[C@@H](Cc2c[nH]c3ccccc23)C(=O)N[C@@H](CC(C)C)C(=O)N[C@H](C(=O)N[C@@H](CCC(N)=O)C(=O)N[C@H](C(=O)N[C@@H](CCCCN)C(=O)N[C@H](C(=O)N[C@H](C(=O)N[C@@H](CC(=O)O)C(N)=O)[C@@H](C)O)[C@@H](C)CC)[C@@H](C)O)[C@@H](C)CC)[C@@H](C)CC)NC(=O)[C@H](C)NC(=O)[C@H](C)NC(=O)[C@H](CCCCN)NC1=O)[C@@H](C)CC)[C@@H](C)O [Example 89] (H-H[Aib]DGSFSDE[Nle][dF]TILDEKAAKDFINWLIQTKITD-NH2; lactam 16-20 (inferred); C-terminus assumed)
98.6	0.00501	95.3	3.98	98.5	0.251	95.5	2.51	13.5	CCCC[C@H](NC(=O)[C@H](CCC(=O)O)NC(=O)[C@H](CC(=O)O)NC(=O)[C@H](CO)NC(=O)[C@H](Cc1ccccc1)NC(=O)[C@H](CO)NC(=O)CNC(=O)[C@H](CC(=O)O)NC(=O)C(C)(C)NC(=O)[C@@H](N)Cc1c[nH]cn1)C(=O)N[C@H](Cc1ccccc1)C(=O)N[C@H](C(=O)N[C@H](C(=O)N[C@@H](CC(C)C)C(=O)N[C@@H](CC(=O)O)C(=O)N[C@@H](CC(C)C)C(=O)N[C@@H](CCCCN)C(=O)N[C@@H](C)C(=O)N[C@@H](C)C(=O)N[C@@H](CCCCN)C(=O)N[C@@H](CC(=O)O)C(=O)N[C@@H](Cc1ccccc1)C(=O)N[C@H](C(=O)N[C@@H](CC(N)=O)C(=O)N[C@@H](Cc1c[nH]c2ccccc12)C(=O)N[C@@H](CC(C)C)C(=O)N[C@H](C(=O)N[C@@H](CCC(N)=O)C(=O)N[C@H]1CCCCNC(=O)CC[C@@H](C(N)=O)NC(=O)[C@H]([C@@H](C)O)NC(=O)[C@H]([C@@H](C)CC)NC(=O)[C@H](CCCCN)NC1=O)[C@@H](C)CC)[C@@H](C)CC)[C@@H](C)CC)[C@@H](C)O [Example 93] (H-H[Aib]DGSFSDE[Nle][dF]TILDLKAAKDFINWLIQKKITE-NH2; lactam 29-33; N-terminus and C-terminus assumed)
